Experiments:
Format in all cases: biochemical
Jak2 = Jak2 (Homo sapiens, UniProt O60674); assay: Jak2 kinase activity inhibition, Caliper Reader
Procedure: Kinase JAk1 and Jak2 enzyme inhibition IC50 evaluation experiments: The buffer was configured with the following components: 50 mM HEPES, pH 7.5, 0.00015% Brij-35. Compounds were placed in a concentration gradient in 100% DMSO and diluted to 10% DMSO with buffer and added to 384 well plates. For example, when the initial concentration of the compound is […], it is made into 12.5 μM with 100% DMSO, and diluted by 5 or 6 concentrations, and then diluted 10-fold with buffer to prepare an intermediate dilution of the compound containing 10% DMSO. Transfer 5 μL, to 384-well plate. The Jak1 and Jak2 enzymes were diluted to the optimal concentration with the following buffer: 50 mM HEPES, pH 7.5, 0.00015% Brij-35, 2 mM DTT. Transfer 10 μL to a 384-well plate and incubate with the compound for 10-15 minutes. The substrate was diluted to the optimal concentration with the following buffer: 50 mM HEPES, pH 7.5, 0.00015% Brij-35, 10 mM MgCl2, adenosine triphosphate at Km. The reaction was initiated by adding 10 μL to a 384-well plate and reacted at 28° C. for 1 hour. The conversion rate was then read using a Caliper Reader and the inhibition rate was calculated. The formula is as follows: Percent inhibition=(max−conversion)/(max−min)*100. Where max is the conversion of the DMSO control and min is the conversion of the enzyme-free control. Fit the IC50 value with XLFit excel add-in version 5.4.0.8. Fitting formula: Y=Bottom+(Top−Bottom)/(1+(IC50/X)^HillSlope).

SYK = SYK (Homo sapiens, UniProt P43405); assay: Syk kinase activity inhibition, Caliper mobility shift assay
Procedure: SYK protein kinase activity was determined using the Caliper mobility shift assay. The compound was dissolved in DMSO and diluted with kinase buffer (20 mM HEPES, 0.01% Triton X-100, 5 mM MgCl2, 1 mM MnCl2, 2 mM DTT), and 5 μL of 5 times final concentration was added to the 384-well plate Compound (10% DMSO). After adding 10 μL of 2.5-fold enzyme (with SYK) solution, incubate for 10 minutes at room temperature, and then add 10 μL of 2.5-fold substrate (Peptide FAM-P22 and ATP) solution. Incubate at 28° C. for 30 minutes, then stop the reaction by adding 25 μL of stop solution (100 mM HEPES, 0.015% Brij-35, 0.2% Coating Reagent #13, 50 mM EDTA, pH 7.5). Conversion rate data was read on a Caliper EZ Reader II (Caliper Life Sciences) The conversion rate was converted into inhibition rate data (% inhibition rate=(max−conversion rate)/(max−min)*100). Where max is the conversion of the DMSO control and min is the conversion of the enzyme-free control. Curves were plotted with compound concentration and inhibition rate on the horizontal and vertical coordinates, and the curve was fitted using XLFit excel add-in version 4.3.1 software and IC50 was calculated.

FLT3 = molecular target: T1, FLT3 (Homo sapiens, UniProt P36888); assay: FLT3 kinase activity inhibition, Caliper mobility shift assay
T1 sequence (P36888 27-993): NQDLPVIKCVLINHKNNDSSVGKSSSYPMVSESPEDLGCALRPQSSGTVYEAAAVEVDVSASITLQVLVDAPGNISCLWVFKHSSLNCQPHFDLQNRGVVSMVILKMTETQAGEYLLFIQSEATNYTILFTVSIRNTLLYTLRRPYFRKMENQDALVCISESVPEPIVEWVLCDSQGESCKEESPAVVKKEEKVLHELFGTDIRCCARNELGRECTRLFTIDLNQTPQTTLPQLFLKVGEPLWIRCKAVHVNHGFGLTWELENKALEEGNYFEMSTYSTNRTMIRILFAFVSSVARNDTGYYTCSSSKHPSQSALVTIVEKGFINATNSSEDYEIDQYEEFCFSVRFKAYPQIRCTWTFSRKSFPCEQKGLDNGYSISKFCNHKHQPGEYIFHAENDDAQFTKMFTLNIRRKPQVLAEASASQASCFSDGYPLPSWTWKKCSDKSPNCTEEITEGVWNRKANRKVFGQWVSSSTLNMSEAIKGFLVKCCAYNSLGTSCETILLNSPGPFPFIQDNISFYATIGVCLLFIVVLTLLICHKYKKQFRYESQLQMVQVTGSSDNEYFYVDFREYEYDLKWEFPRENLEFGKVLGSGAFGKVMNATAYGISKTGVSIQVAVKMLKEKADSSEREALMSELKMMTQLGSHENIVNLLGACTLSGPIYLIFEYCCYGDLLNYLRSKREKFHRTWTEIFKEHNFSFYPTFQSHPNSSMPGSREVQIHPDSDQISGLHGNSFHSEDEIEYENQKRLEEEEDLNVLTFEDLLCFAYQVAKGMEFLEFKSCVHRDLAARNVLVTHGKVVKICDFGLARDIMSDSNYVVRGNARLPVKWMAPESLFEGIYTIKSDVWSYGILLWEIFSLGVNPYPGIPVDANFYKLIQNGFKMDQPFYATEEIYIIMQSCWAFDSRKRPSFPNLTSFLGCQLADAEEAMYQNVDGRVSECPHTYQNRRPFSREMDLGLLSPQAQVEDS
Procedure: FLT3 protein kinase activity was measured using the Caliper mobility shift assay. The compound was dissolved in DMSO and diluted with a kinase buffer (50 mM HEPES, pH 7.5, 0.0015% Brij-35, 2 mM DTT), and 5 μL of a 5-fold final concentration of the compound (10% DMSO) was added to a 384-well plate. After adding 10 μL of 2.5-fold FLT3 enzyme solution, incubate for 10 minutes at room temperature, and then add 10 μL of a 2.5-fold substrate (FAM-labeled polypeptide and ATP) solution. After incubation at 28° C. for 60 minutes, the reaction was stopped by adding 25 μL of stop solution (100 mM HEPES, 0.015% Brij-35, 0.2% Coating Reagent #3, 50 mM EDTA, pH 7.5). Conversion rate data was read on a Caliper EZ Reader II (Caliper Life Sciences). The conversion rate was converted into inhibition rate data (% inhibition rate=(max−conversion rate)/(max−min)*100). Where max is the conversion of the DMSO control and min is the conversion of the enzyme-free control Curves were plotted with compound concentration and inhibition rate on the horizontal and vertical coordinates, and the curve was fitted using XLFit excel add-in version 4.3.1 software and IC50 was calculated.

EGFR = EGFR (Homo sapiens, UniProt P00533); assay: EGFR kinase activity inhibition, Caliper mobility shift assay
Procedure: (§1) EGFR and EGFR (T790M/L858R) protein kinase activities were determined using the Caliper mobility shift assay. The compound was dissolved in DMSO and diluted with kinase buffer (EGFR (T790M/L858R): 50 mM HEPES at pH 7.5, 0.0015% Brij-35, 10 mM MgCl2, 2 mM DTT; EGFR: pH 7.5 50 mM HEPES, 0.0015% Brij-35, 10 mM MgCl2, 10 mM MnCl2, 2 mM DTT), 5 μL of 5 times the final concentration of the compound (10% DMSO) was added to a 384-well plate. Add 10 μL of 2.5-fold enzyme (using EGFR and EGFR (1790M/L858R), respectively) and incubate for 10 minutes at room temperature, then add 10 μL of 2.5-fold substrate (Peptide FAM-P22 and ATP) solution. After incubation at 28° C. for 60 minutes, the reaction was stopped by adding 25 μL of stop solution (100 mM HEPES, 0.015% Brij-35, 0.2% Coating Reagent #3, 50 mM EDTA, pH 7.5). Conversion rate data was read on a Caliper EZ Reader II (Caliper Life Sciences). The conversion rate was converted into inhibition rate data (% inhibition rate=(max−conversion rate)/(max−min)*100). Where max is the conversion of the DMSO control and min is the conversion of the enzyme-free control Curves were plotted with compound concentration and inhibition rate on the horizontal and vertical coordinates, and the curve was fitted using XLFit excel add-in version 4.3.1 software and IC50 was calculated.

EGFR (T790M/L858R) = EGFR (T790M/L858R) (Homo sapiens, UniProt P00533, L858R/T790M); assay: EGFR (T790M/L858R) kinase activity inhibition, Caliper mobility shift assay
Procedure: as §1

Chain of EGFR (T790M/L858R) (P00533 25-1210 T790M/L858R): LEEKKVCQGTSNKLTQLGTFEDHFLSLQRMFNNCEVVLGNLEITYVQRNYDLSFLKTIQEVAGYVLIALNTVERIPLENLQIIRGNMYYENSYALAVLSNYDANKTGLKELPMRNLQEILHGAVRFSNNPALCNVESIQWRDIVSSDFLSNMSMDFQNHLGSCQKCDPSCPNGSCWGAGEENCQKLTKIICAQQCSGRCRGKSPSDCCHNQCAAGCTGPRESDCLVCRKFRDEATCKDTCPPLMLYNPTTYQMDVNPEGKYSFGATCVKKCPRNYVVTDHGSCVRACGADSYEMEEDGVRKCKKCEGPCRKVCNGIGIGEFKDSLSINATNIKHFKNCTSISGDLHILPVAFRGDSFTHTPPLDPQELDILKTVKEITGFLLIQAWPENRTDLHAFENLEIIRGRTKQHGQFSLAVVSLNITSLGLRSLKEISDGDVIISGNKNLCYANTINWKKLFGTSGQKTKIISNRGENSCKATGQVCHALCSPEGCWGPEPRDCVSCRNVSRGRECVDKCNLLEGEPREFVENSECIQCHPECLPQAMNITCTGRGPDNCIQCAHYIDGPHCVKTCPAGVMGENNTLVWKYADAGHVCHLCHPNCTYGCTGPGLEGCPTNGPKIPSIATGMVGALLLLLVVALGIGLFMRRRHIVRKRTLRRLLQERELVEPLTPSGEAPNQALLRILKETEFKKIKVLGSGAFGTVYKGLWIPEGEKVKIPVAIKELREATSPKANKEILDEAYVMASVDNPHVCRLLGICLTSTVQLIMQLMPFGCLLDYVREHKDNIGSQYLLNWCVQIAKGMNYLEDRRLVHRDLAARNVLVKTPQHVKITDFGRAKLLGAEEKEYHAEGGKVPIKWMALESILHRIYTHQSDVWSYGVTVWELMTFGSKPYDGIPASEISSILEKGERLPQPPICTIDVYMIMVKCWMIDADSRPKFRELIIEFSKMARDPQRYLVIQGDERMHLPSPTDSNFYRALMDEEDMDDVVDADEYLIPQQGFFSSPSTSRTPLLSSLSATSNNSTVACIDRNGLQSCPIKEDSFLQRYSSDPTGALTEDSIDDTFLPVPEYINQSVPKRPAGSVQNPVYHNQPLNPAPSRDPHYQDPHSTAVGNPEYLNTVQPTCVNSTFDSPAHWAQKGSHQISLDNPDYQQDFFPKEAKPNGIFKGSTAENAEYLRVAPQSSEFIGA
Chain of EGFR (P00533 25-1210): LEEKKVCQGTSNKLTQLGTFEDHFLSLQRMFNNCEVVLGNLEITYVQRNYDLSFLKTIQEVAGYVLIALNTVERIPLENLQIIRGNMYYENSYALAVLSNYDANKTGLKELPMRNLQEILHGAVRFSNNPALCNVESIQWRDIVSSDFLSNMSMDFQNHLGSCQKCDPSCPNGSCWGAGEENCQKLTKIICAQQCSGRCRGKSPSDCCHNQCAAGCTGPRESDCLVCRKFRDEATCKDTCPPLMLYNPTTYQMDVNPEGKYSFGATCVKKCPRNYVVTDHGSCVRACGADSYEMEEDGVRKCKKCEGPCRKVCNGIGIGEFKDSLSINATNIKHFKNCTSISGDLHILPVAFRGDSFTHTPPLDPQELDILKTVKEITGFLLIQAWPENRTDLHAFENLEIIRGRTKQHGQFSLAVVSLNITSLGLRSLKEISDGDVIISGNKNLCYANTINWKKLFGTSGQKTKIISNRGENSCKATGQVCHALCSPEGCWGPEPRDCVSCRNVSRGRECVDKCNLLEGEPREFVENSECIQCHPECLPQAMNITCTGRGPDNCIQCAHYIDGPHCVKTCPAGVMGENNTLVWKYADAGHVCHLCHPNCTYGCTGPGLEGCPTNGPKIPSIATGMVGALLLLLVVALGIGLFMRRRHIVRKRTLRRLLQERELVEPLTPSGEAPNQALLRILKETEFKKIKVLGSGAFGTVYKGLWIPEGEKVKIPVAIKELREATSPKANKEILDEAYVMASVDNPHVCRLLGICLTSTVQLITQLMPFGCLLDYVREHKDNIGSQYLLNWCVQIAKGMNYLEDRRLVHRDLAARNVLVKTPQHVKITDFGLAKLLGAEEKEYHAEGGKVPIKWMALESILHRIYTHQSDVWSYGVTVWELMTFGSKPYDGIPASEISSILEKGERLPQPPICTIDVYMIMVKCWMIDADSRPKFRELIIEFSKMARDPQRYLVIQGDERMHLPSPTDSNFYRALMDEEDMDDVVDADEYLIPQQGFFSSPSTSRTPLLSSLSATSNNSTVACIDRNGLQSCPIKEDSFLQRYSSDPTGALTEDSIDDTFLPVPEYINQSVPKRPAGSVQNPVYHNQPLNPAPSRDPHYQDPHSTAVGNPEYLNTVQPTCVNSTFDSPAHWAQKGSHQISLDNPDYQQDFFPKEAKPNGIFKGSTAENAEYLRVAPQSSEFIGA
Chain of Jak2 (O60674 whole entry, species assumed): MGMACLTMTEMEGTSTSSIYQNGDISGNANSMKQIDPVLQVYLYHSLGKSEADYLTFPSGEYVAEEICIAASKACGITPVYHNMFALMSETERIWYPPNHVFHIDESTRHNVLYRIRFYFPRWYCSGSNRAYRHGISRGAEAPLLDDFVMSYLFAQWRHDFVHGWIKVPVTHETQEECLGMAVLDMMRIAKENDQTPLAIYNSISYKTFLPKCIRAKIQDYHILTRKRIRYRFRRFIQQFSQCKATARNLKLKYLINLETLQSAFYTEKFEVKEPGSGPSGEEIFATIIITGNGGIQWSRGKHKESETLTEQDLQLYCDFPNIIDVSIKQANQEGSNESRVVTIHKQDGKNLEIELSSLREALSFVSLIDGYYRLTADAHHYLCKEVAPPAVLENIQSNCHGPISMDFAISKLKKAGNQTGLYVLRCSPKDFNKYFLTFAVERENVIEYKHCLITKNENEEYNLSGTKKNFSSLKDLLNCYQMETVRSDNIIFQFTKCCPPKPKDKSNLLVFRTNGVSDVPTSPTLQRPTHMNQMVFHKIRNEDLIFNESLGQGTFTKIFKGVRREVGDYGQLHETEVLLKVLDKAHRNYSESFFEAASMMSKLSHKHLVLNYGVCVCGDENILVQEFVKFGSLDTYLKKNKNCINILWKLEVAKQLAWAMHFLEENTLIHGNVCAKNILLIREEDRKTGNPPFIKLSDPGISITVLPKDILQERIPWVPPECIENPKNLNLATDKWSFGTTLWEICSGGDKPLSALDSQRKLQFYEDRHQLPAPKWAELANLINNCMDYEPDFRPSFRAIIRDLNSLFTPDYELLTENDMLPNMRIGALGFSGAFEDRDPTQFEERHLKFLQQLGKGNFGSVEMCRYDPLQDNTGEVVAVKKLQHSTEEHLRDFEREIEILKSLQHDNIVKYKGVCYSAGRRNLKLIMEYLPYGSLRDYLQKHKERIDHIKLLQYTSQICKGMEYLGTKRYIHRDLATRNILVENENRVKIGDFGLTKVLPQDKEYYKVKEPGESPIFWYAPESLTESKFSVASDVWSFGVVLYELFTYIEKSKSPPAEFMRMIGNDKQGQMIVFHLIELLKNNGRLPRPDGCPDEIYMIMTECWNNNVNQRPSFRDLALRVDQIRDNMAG

Row | Compound | IC50 (Jak2) | IC50 (SYK) | IC50 (FLT3) | IC50 (EGFR) | IC50 (EGFR (T790M/L858R))
1 | C=CS(=O)(=O)N1CCN2c3ccc(Nc4ncc(C(N)=O)c(NC5CC5)n4)cc3OC[C@H]2C1 [Compound C15R] | < 50 nM | < 50 nM | – | – | –
2 | CC(C)(C)OC(=O)N1CCN2c3ccc(Nc4ncc(C(N)=O)c(NC5CC5)n4)cc3OC[C@H]2C1 [Compound C7R] | < 50 nM | < 50 nM | – | – | –
3 | CCc1nc(C(N)=O)c(Nc2ccc3c(c2)OC[C@H]2COCCN32)nc1NC1CCOCC1 [Compound D2R] | – | – | < 10 nM | – | –
4 | C=CC(=O)Nc1cccc(Nc2nc(Nc3ccc4c(c3)OCC3CN(C)CCN43)ncc2C(F)(F)F)c1 (centres unmarked) [Compound A1] | – | – | – | < 100 nM | < 10 nM
5 | C=CC(=O)Nc1cccc(Nc2nc(Nc3ccc4c(c3)OC[C@H]3CN(CC)CCN43)ncc2C(F)(F)F)c1 [Compound A5R] | – | – | – | < 100 nM | < 1 nM
6 | CCc1nc(C(N)=O)c(Nc2ccc3c(c2)OC[C@H]2CN(C4CC4)CCN32)nc1NC1CCOCC1 [Compound D4R] | – | – | < 1 nM | – | –
7 | NC(=O)c1cnc(Nc2ccc3c(c2)OCC2COCCN32)nc1NC1CC1 (centres unmarked) [Compound C18R] | < 50 nM | < 50 nM | – | – | –
8 | C=CC(=O)Nc1cccc(Nc2nc(Nc3ccc4c(c3)OC[C@@H]3CN(C)CCN43)ncc2C(F)(F)F)c1 [Compound A1S] | – | – | – | < 100 nM | < 1 nM
9 | C=CC(=O)Nc1cccc(Nc2nc(Nc3ccc4c(c3)OC[C@@H]3CN(C)CC(=O)N43)ncc2C(F)(F)F)c1 [Compound A9S] | – | – | – | < 100 nM | < 10 nM
10 | C=CC(=O)Nc1cccc(Nc2nc(Nc3ccc4c(c3)OC[C@H]3CN(C(=O)C(F)(F)F)CCN43)ncc2C(F)(F)F)c1 [Compound A4R] | – | – | – | < 100 nM | < 10 nM
11 | C=CC(=O)Nc1cccc(Nc2nc(Nc3ccc4c(c3)OC[C@H]3CN(C(C)=O)CCN43)ncc2C(F)(F)F)c1 [Compound A2R] | – | – | – | < 100 nM | < 10 nM
12 | CN1CCN2c3ccc(Nc4ncc(C(N)=O)c(NC5CC5)n4)cc3C(=O)CC2C1 (centres unmarked) [Compound C17] | < 50 nM | < 50 nM | – | – | –
13 | C=CC(=O)Nc1cccc(Nc2nc(Nc3ccc4c(c3)OC[C@H]3COCCN43)ncc2C(F)(F)F)c1 [Compound A8R] | – | – | – | < 100 nM | < 10 nM
14 | NC(=O)c1cnc(Nc2ccc3c(c2)OC[C@H]2CN(S(=O)(=O)c4ccccc4)CCN32)nc1NC1CC1 [Compound C9R] | < 50 nM | < 10 nM | – | – | –
15 | NC(=O)c1cnc(Nc2ccc3c(c2)OC[C@H]2CN(S(N)(=O)=O)CCN32)nc1NC1CC1 [Compound C16R] | < 50 nM | < 50 nM | – | – | –
16 | C=CC(=O)Nc1cccc(Nc2nc(Nc3ccc4c(c3)OC[C@@H]3COCCN43)ncc2C(F)(F)F)c1 [Compound A8S] | – | – | – | < 100 nM | < 10 nM
17 | CC(C)S(=O)(=O)N1CCN2c3ccc(Nc4ncc(C(N)=O)c(NC5CC5)n4)cc3OC[C@H]2C1 [Compound C12R] | < 10 nM | < 10 nM | – | – | –

Second part, the molecule after the results:

Row | IC50 (Jak2) | IC50 (SYK) | IC50 (FLT3) | IC50 (EGFR) | IC50 (EGFR (T790M/L858R)) | Compound
18 | – | – | – | < 100 nM | < 10 nM | C=CC(=O)Nc1cccc(Nc2nc(Nc3ccc4c(c3)OC[C@@H]3CN(C(C)=O)CCN43)ncc2C(F)(F)F)c1 [Compound A2S]
19 | < 10 nM | < 10 nM | – | – | – | CS(=O)(=O)N1CCN2c3ccc(Nc4ncc(C(N)=O)c(NC5CC5)n4)cc3OC[C@H]2C1 [Compound C11R]
20 | – | – | – | – | < 1 nM | C=CC(=O)Nc1cccc(Nc2nc(Nc3ccc4c(c3)OC[C@@H]3CNCCN43)ncc2C(F)(F)F)c1 [Compound A3S]
21 | – | – | – | < 500 nM | < 50 nM | C=CC(=O)Nc1cccc(Nc2nc(Nc3ccc4c(c3)OC[C@H]3CN(CC(F)(F)F)CCN43)ncc2C(F)(F)F)c1 [Compound A7R]
22 | – | – | – | < 100 nM | < 10 nM | C=CC(=O)Nc1cccc(Nc2nc(Nc3ccc4c(c3)OC[C@H]3CN(C5CC5)CCN43)ncc2C(F)(F)F)c1 [Compound A6R]
23 | < 10 nM | < 10 nM | – | – | – | CN(C)S(=O)(=O)N1CCN2c3ccc(Nc4ncc(C(N)=O)c(NC5CC5)n4)cc3OC[C@H]2C1 [Compound C14R]
24 | < 10 nM | < 10 nM | – | – | – | NC(=O)c1cnc(Nc2ccc3c(c2)OC[C@H]2CN(S(=O)(=O)C4CCOCC4)CCN32)nc1NC1CC1 [Compound C13R]
25 | – | – | – | < 50 nM | < 1 nM | C=CC(=O)Nc1cccc(Nc2nc(Nc3ccc4c(c3)OC[C@H]3CNCCN43)ncc2C(F)(F)F)c1 [Compound A3R]
26 | < 10 nM | < 50 nM | – | – | – | NC(=O)c1cnc(Nc2ccc3c(c2)OC[C@H]2CNCCN32)nc1NC1CC1 [Compound C8R]
27 | – | – | – | < 100 nM | < 1 nM | C=CC(=O)Nc1cccc(Nc2nc(Nc3ccc4c(c3)OC[C@H]3CN(C)CCN43)ncc2C(F)(F)F)c1 [Compound A1R]
28 | – | – | – | < 100 nM | < 10 nM | C=CC(=O)Nc1cccc(Nc2nc(Nc3ccc4c(c3)OC[C@H]3CN(C)CC(=O)N43)ncc2C(F)(F)F)c1 [Compound A9R]

Source: patent US10730887B2, “Compound containing tricyclic heteroaryl group” (Hangzhou Innogate Pharma Co., Ltd., priority 2016, dated 2020)
